In PMC8686256, “DZNep promotes mouse bone defect healing via enhancing both osteogenesis and osteoclastogenesis” (Stem Cell Research & Therapy, 2021):

Tests used:
Format in all cases: cell-based, mouse
primary BMSC = assay: CCK-8 cytotoxicity on BMSC; conditions: 100 nM; 12, 48, and 96 h
primary BMMs = assay: CCK-8 cytotoxicity assay on BMMs
Experimental: Primary BMMs were obtained from whole bone marrow of male 6-week-old C57BL/6 mice. In brief, cells were extracted from the tibiae and femurs bone marrow and suspended in complete α-MEM (α-MEM supplemented with 30 ng/ml M-CSF, 10% FBS, and 1% penicillin/streptomycin). Then, the cell cultures were kept in a humid environment at 37 °C with 5% CO2 until they reached 90% confluence. The cytotoxic effects of DZNep on BMMs were then determined by the CCK-8 kit. Specifically, the BMMs were seeded into 96-well plates in triplicate at the density of 8 × 10^3 cells/well in presence of 100μL complete α-MEM for 24 h. After that, the cells were treated with increasing concentration of DZNep (control, 3.125, 6.25, 12.5, 25, 50, 100, 200 nM) for 24, 48, and 96 h. After treatment, 100μL medium contained 10% CCK-8 buffer was added to the wells and incubated in the dark at 37 °C for 2 h. The absorbance was then detected at 450 nm wavelength (650 nm reference) on a microplate reader.

BMMs = assay: Immunofluorescence of podosome actin belt; conditions: 25 nM, vs control
Experimental: BMMs in complete α-MEM with or without 25 nM DZNep were seeded in 6-well plates at a density of 1 × 10^5 cells/well and cultured for 6 days. Once the matured osteoclast could be observed, the plate was washed by PBS and then fixed with 4% paraformaldehyde. The 10 min 0.2% Triton X-PBS was then performed for permeabilizing. After three times washing by PBS, FITC-labeled phalloidin was added for 1 h in darkness to bounds with the cells F-actin ring. The nuclei were stained at RT for 5 min without light by 4′, 6-diamidino-2-phenylindole (DAPI). After the final PBS wash, the perimeter of the actin ring could be observed by the fluorescence microscope (Leica) and analyzed using ImageJ software (NIH, Bethesda, MD, USA).

[1] = system: osteoclast-related genes in BMMs; assay: qPCR of osteoclast-related genes in BMMs
Experimental: BMMs were cultured in 6-well plates at the density of 2 × 10^5 cells/well in α-MEM supplemented with M-CSF (30 ng/ml), RANKL (50 ng/ml). The cells were then treated with or without 25 nM DZNep for 0, 1, 3, 5 days, or with various concentrations of DZNEP (0, 6.25, 25 nM) for 5 days, or with negative control siRNA, negative control siRNA with DZNep, and Foxc1 small interfering RNA (siRNA) with DZNep for 5 days. Once the culture completed, the Axygen RNA Miniprep Kit (Axygen, Union City, CA, USA) was used to extract the total RNA. BMSC were seeded in a 6-well plate at a number of 4 × 10^5 cells/well and treated with 0, 25, 50, 100 nM of DZNep combined with osteoblast-cultured medium for 24 h, or with or without 100 nM DZNep combined with osteoblast-cultured medium for 0 and 7 days, or with negative control siRNA, negative control siRNA with DZNep, and Wnt4 small interfering RNA (siRNA) with DZNep combined with osteoblast-cultured medium for 7 days. Once the culture completed, the Axygen RNA Miniprep Kit (Axygen, Union City, CA, USA) was used to extract the total RNA. After reverse transcription to obtain cDNA from the RNA template by using the Prime Script RT reagent Kit was finished. The real-time PCR assay was subsequently performed by using the SYBR® Premix Ex Taq™ II on an ABI 7500 Sequencing Detection System (Applied Biosystems, Foster City, CA). Specifically, total volume of 10 μl liquid consisted by 5 μl of SYBR® Premix Ex Taq™ II, 1 μl of diluted cDNA, 0.4 μl of mixed forward and reverse primer, and 3.6 μl of ddH2O was added into each hole of 384 PCR plate. Conditions of the 40 cycles were: 95 °C for 5 s and 60 °C for 30 s. The melting curves and reverse transcription PCR (RT-PCR) were the methods to detect the specificity of amplification product. Each target’s quantity, run in triplicate, was normalized to Actin Beta (Actb). […]

[2] = system: BMMs and calvarial OB co-culture; assay: Osteoblasts and osteoclasts co-cultivation, ALP staining; conditions: 7 days
Experimental: For the osteoblasts and osteoclasts co-culture system, calvarial OB isolated from day 1–3 pups were cultured for 24 h. Then the calvarial OB with complete α-MEM (α-MEM supplemented with 10% FBS, 1% penicillin/streptomycin) were seeded into 24-well plates at a density of 2 × 10^4 cells/well. After 3 days of cultivation, the medium was replaced by the complete α-MEM containing […] ascorbic acid and 5 mM β-glycerophosphate. On the same day, bone marrow monocytes were isolated from bone marrow and cultured in 10-cm dish. Another 3 days later, BMMs were seeded at a density of 4 × 10^4 cells/well into the 24-well plate containing the calvarial OB, and the α-MEM supplemented with 15% FBS, 1% penicillin/streptomycin, 1, 25-dihydroxy vitamin D3 (10 nM; CSN), and PGE2 (1 μM; CSN). After changed every 3 days for 2 times of the culture medium, the cells were then fixed and stained to observe the percent of the positive ALP staining area using a kit according to the manufacturer’s instructions (Beyotime, Shanghai, China). The percent of area was then quantified using ImageJ.

In the case of `Nc1nccc2c1ncn2C1C=C(CO)C(O)C1O` (centres unmarked) [DZNep, 3-Deazaneplanocin], the “cytotoxicity on primary BMSC” value (primary BMSC) is reported as “no cytotoxicity was found”, the “cytotoxicity on primary BMMs” value (primary BMMs; 25 nM, CCK-8 at 24, 48, and 96 h) is reported as “no cytotoxicity was found” and the IC50 (primary BMMs; Mus musculus, at 96 h, CCK-8, read-out: inhibitory concentration (IC50) against BMMs) is reported as 326 nM. The “podosome actin belt formation of osteoclast” value (BMMs) was “promoted the podosome actin belt formation”, the “expression of Trap, Ctsk, Atp6v0d2 (qPCR)” value ([1]; 25 nM, 0, 1, 3, 5 days) was “significantly enhanced in a time-dependent manner” and the “mRNA expression of Foxc1 in BMMs” value ([1]; RANKL and DZNep treatment for 5 days) was “upregulated”. The “expression of Calcr, c-FOS, Nfatc1, Trap, Ctsk, Atp6v0d2 (qPCR)” value ([1]; indicated DZNep concentrations, 5 days) was “upregulated in a dose-dependent manner” and the “osteogenesis in co-culture system (ALP)” value [2] was “still preserves the effect of promoting osteogenesis”.
